“Also recorded” adds a separate entry of the source. Where no end group is shown, it is not given here.

In data set [1] the test system is autologous primary ovarian cancer cells endogenously expressing CA125.
Protocol: Cytotoxicity was tested in a 5 hr ^51Cr-release assay against autologous primary ovarian cancer target cells and unpulsed autologous LCL at different Effector cell: Target cell ratios (E:T). Blocking monoclonal antibody (MAb) against non-polymorphic HLA A, B, and C determinants (W6/32) was also used.
Cytotoxicity was tested in a 5 hr 5 Cr-release assay against autologous primary ovarian cancer target cells and autologous LCL at a 20:1 ratio. Blocking monoclonal antibody against non-polymorphic HLA A, B, and C determinants (W6/32) was also used.
Briefly, viable tumor tissue was mechanically minced in RPMI 1640 to portions no larger than 1-3 mm^3 and washed twice with RPMI 1640. The portions of minced tumor were then placed into 250 ml flasks containing 30 ml of enzyme solution [0.14% collagenase Type 1 and 0.01% DNAse 2000 KU/mg; (Sigma)] in RPMI 1640, and incubated on a magnetic stirring apparatus overnight at 4° C. Enzymatically dissociated tumor was then filtered through 150 μm nylon mesh to generate a single cell suspension. The resultant cell suspension was then washed twice in RPMI 1640 plus 10% FBS (fetal bovine serum). Purity of fresh tumor cultures was tested by morphology, immunochemistry staining and/or flow cytometry with antibodies against cytokeratins. Only cell lines containing more than 99% tumor cells were evaluated in cytotoxicity assays. […]
Data set [2] has as its system autologous primary ovarian cancer cells endogenously expressing TADG-12. The data set can be described thus: 51Cr-release cytotoxicity against autologous ovarian cancer cells expressing TADG-12. The format is cell-based, human. As for the experimental part:
FIG. 9. […] A representative experiment from patient 1 is shown.
FIG. 10. CD8^+ CTL recognition of autologous ovarian cancer cells (i.e., K ova) endogenously expressing TADG-12 by TADG-12 P5-stimulated lymphocytes. […] A representative experiment from patient 1 is shown.
Cryopreserved peripheral blood leukocytes (PBL) from patient # 3, harboring advanced stage ovarian cancer, have been used for the generation of DC. Monocyte-derived DC were cultured in AIM-V (Gibco-BRL) supplemented with GM-CSF and IL-4 (1). After 5 days' culture, DC maturation was induced by addition of TNFα, IL-1β and PGE2 (1). Mature DC were pulsed for 1-2 hr at 37° C. with 50 μg/ml of all 8 TADG-12-derived peptides, and washed twice before culture with PBL at a responder:stimulator ratio of 30:1. The culture medium was AIM-V plus 5% human AB serum (Gemini Bioproducts). No IL-2 was added. After 7 days, responder T cells were collected and restimulated with peptide-pulsed DC. For the second and third DC stimulations, the medium was supplemented with 50-100 U/ml IL-2, and the culture period extended to 14 days. After the third cycle, CD8+ T cells were recovered by positive selection with anti-CD8 magnetic beads (Dynal). Subsequent restimulations (passages) of CD8+ T cells used peptide-loaded autologous PBL as antigen-presenting cells.

In data set [3] the test system is primary ovarian cancer cells. The data set can be described thus: Flow cytometry of MHC class I, HLA-A2 and ICAM-1 on primary ovarian tumor cells after IFN-γ. It is filed as cell-based, human. To be noted: 500 U/ml for 48 hrs. As for the experimental part:
Briefly, tumor cells were harvested with 0.25 percent trypsin in HBBS (Gibco, Grand Island, N.Y.) and washed once in complete medium. Cell suspensions were counted and distributed into 12×75 mm tubes at 5×10^5 cells/tube. Mouse monoclonal antibodies [anti-HLA class I (MAb W6/32); anti-HLA-A2 (BB7-2) and anti-HLA Class II (MAb CR3-43) Accurate Chemical and Scientific Corporation, Westbury, N.Y.); and anti-ICAM-1 (MAb LB-2; Becton Dickinson)] were diluted in cold assay buffer (PBS, pH 7.2, supplemented with 0.1% FCS) and added in a 50-μl volume. A mouse IgG preparation (MAb IgG2a; Becton Dickinson) was used as negative control. Tumor cells were analyzed by FACScan (Becton Dickinson) utilizing Cell Quest software (Becton Dickinson).
In contrast, MHC class II molecule expression was negligible in all 3 primary tumor cell lines tested (data not shown).

Data set [4] has as its system primary ovarian cancer cell lines. The data set can be described thus: Real time PCR of CA125 and TADG-12 mRNA after IFN-γ. It is filed as cell-based, human. To be noted: after exposure to IFN-γ, data not shown. As for the experimental part: Importantly, because tissue digestion and prolonged in vitro cell culture may potentially alter CA125 and TADG-12 antigen expression, primary ovarian cancer cell lines were evaluated before and after several in vitro passages for CA125 and TADG-12 expression by real time PCR and flow cytometry. Briefly, RNA extraction was performed on autologous primary ovarian cancer cell lines when tumor cells were 50% to 80% confluent after no passages (i.e., P0) and up to a maximum of twenty passages in vitro. RNA isolation was performed using TRIzol Reagent (Invitrogen) according to the manufacturer's instructions. To verify integrity, 4 μg of RNA from each sample was run in 1% agarose gel using 18S+28S Ribosomal RNA (Sigma) as positive control. Briefly, five μg of total RNA from each sample was reverse-transcribed using SuperScript III first strand cDNA synthesis (Invitrogen). […] Quantitative-RT-PCR was performed with an ABI Prism 7000 Sequence Analyzer using the manufacturer's recommended protocol (Applied Biosystems, Foster City, Calif.) to evaluate expression of CA125 and TADG-12 in primary tumors. […] Primers specific for 18S ribosomal RNA and empirically determined ratios of 18S competimers (Applied Biosystems) were used to control for the amount of cDNA generated from each sample. […]

Data set [5] relates to autologous LCL pulsed with CA125-derived peptides. The data set can be described thus: 51Cr-release cytotoxicity of peptide-specific CD8+ T cells against LCL pulsed with CA125 peptides. The format is cell-based, human. To be noted: CD8+ T cells from a healthy donor, autologous LCL pulsed with 50 μg/ml peptide, 5 hour 51Cr-release. As for the experimental part:
Dendritic cells were loaded with the CA125 peptides of Table 3 and used to amplify CD8+ T cells cytotoxic against cells displaying the cognate peptide as described in Example 5. The amplified CD8+ T cell lines were tested for cytoxicity against autologous lymphoblastoid cell lines (LCL) pulsed with the CA125 peptide used to amplify the T cells. Cytotoxicity was tested in a 5 hour ^51Cr-release assay against autologous LCL and autologous LCL pulsed with 50 μg/ml peptide (5, 6). […] Natural killer (NK)-sensitive K562 cells were not lysed (data not shown).

A further data set has as its system autologous unpulsed LCL. The data set can be described thus: 51Cr-release cytotoxicity against unpulsed autologous LCL. The format is cell-based, human. The note with it: CTL stimulated by CA125 P10-pulsed autologous DC.

Regarding FMVPFTLNFT [P11 CA125/10, FMVPfTLNFT], the “cytotoxicity against autologous primary ovarian cancer cells endogenously expressing CA125” value in data set [1] is “Unlike peptides 7, 11 and 12, only the CA125 YTLDrDSLYV (SEQ ID NO:10) peptide (P10) was found to be reliably cytotoxic”.

Consider “IFN-γ: Cytokine to which primary ovarian tumor cells were exposed (500 U/ml for 48 hrs)”, for which the “effect of IFN-γ exposure of tumor cells on recognition and killing by peptide-specific CTL” value in data set [2] (exposure for 48 hrs) is “further increased recognition and killing of autologous ovarian cancer cells; also recorded: significantly increase the cytotoxic activity”. The “MHC class I, HLA-A2 and ICAM-1 expression levels” value in data set [3] is given as “markedly up-regulate”. Further, the “expression levels of CA125 and TADG-12 mRNA” value in data set [4] is on record as “did not detect any change”. Regarding “LLMPfTLNFT (LLMPFTLNFT; listed as Homo sapiens) [P9 CA125/10]”, the “% Lysis” value in data set [5] is recorded as 0%. On to TLLVTGTSRV [P12 CA125/10, TLLVtGTSRV], for which, in data set [1], the “cytotoxicity against autologous primary ovarian cancer cells endogenously expressing CA125” value was “Unlike peptides 7, 11 and 12, only the CA125 YTLDrDSLYV (SEQ ID NO:10) peptide (P10) was found to be reliably cytotoxic”.

Consider YLPKSWTIQV [P5 TADG12/10, YLPKsWTIQV], for which the “cytotoxicity against autologous primary ovarian cancer cells endogenously expressing TADG-12” value in data set [2] (TADG-12 peptides, CTL stimulated by peptide-pulsed DC, 5 hr 51Cr-release, listed as SEQ ID NO: 17) is “consistently lyse autologous ovarian tumor cells expressing TADG-12”. As to YTLDRDSLYV [P10 CA125/10, YTLDrDSLYV], the “cytotoxicity against autologous unpulsed LCL” value with autologous unpulsed LCL is “not against autologous unpulsed LCL”.

Values taken from US8097242B2, “Target CA125 peptides for cancer immunotherapy” (The Board of Trustees of the University of Arkansas, priority 2006, dated 2012).
